What all share (type): cell-based
One assay deals with T1, EML4-ALK Ba/F3 (Homo sapiens, UniProt Q9UM73).
T1 construct: fused on or other part: Q9HC35 (Echinoderm microtubule-associated protein-like 4)
As to the kind of experiment: Cell proliferation assay, EML4-ALK Ba/F3 stable cell line (CellTiter-Glo). The settings on record: Ba/F3-EML4-ALK wild type (variant 1) cells, 72 hours compound incubation; read-out: Cell Proliferation IC50 EML4-ALK Ba/F3. The source says: (§1) Creation of CD74-ROS1 and EML4-ALK Ba/F3 Stable Cell Lines and Cell Proliferation Assays.
(§2) The CD74-ROS1 wild-type gene and EML4-ALK wild-type gene (variant 1) were synthesized at GenScript and cloned into pCDH-CMV-MCS-EF1-Puro plasmid (System Biosciences, Inc). Ba/F3-CD74-ROS1 and Ba/F3-EML4-ALK wild type cell lines were generated by infecting Ba/F3 cells with lentivirus containing CD74-ROS1 wide-type and EML4-ALK wild type. Stable cell lines were selected by puromycin treatment, followed by IL-3 withdrawal. 3000 cells were seeded in 384 well white plate overnight before compound treatment. Cell proliferation was measured using CellTiter-Glo luciferase-based ATP detection assay (Promega) following the manufactures's protocol after 72 hours of various concentration of compound incubation. IC50 determinations were performed using GraphPad Prism software (GraphPad, Inc., San Diego, Calif.).
In general terms: In ATP-based viability assays light output follows the ATP content of the culture.

Assay [1] has as its system essential thrombocythemia cell line SET-2 cells (harboring endogenous JAK2 point mutation). Put plainly: Cell proliferation assay, SET-2 cells (CellTiter-Glo). The settings on record: Homo sapiens, 72 hours incubation, read-out: Cell Proliferation IC50 SET2. The protocol: (§3) Cell Proliferation Assays.
(§4) Colorectal cell lines KM 12 (harboring endogenous TPM3-TRKA fusion gene) cells were cultured in DMEM medium, supplemented with 10% fetal bovine serum and 100 U/mL of penicillin/streptomycin. 5000 cells were seeded in 384 well white plate for 24 hours before compounds treatment. Cell proliferation was measured using CellTiter-Glo luciferase-based ATP detection assay (Promega) following the manufactures's protocol after 72 hours incubation. IC50 determinations were performed using GraphPad Prism software (GraphPad, Inc., San Diego, Calif.). Alternatively, essential thrombocythemia cell line SET-2 cells (harboring endogenous JAK2 V618F point mutation) or T cell lymphoma Karpas-299 cell line (harboring endogenous NPM-ALK fusion gene) were cultured in RPMI medium, supplemented with 10% fetal bovine serum and 100 U/mL of penicillin/streptomycin. 5000 cells were seeded in 384 well white plate for 24 hours before compounds treatment. Cell proliferation was measured using CellTiter-Glo luciferase-based ATP detection assay (Promega) following the manufactures's protocol after 72 hours incubation. IC50 determinations were performed using GraphPad Prism software (GraphPad, Inc., San Diego, Calif.).

Assay [2] relates to Colorectal cell lines KM 12 (harboring endogenous TPM3-TRKA fusion gene). Put plainly: Cell proliferation assay, KM12 cells (CellTiter-Glo). The settings on record: Homo sapiens, 72 hours incubation. The protocol: as §3
as §4, with “Alternatively, essential thrombocythemia cell line SET-2 cells (harboring endogenous JAK2 V618F point mutation) or T cell lymphoma Karpas-299 cell line (harboring endogenous NPM-ALK fusion gene) were cultured in RPMI medium, supplemented with 10% fetal bovine serum and 100 U/mL of penicillin/streptomycin.” left out

Another assay deals with T2, CD74-ROS1 Ba/F3 (Homo sapiens, UniProt P08922).
T2 construct: fused on or other part: P04233 (HLA class II histocompatibility antigen gamma chain)
As to the kind of experiment: Cell proliferation assay, CD74-ROS1 Ba/F3 stable cell line (CellTiter-Glo). The settings on record: Ba/F3-CD74-ROS1 wild type cells, 72 hours compound incubation; read-out: Cell Proliferation IC50 CD74-ROS1 Ba/F3.
From the text: as §1, §2

In assay [3] the test system is T cell lymphoma Karpas-299 cell line (harboring endogenous NPM-ALK fusion gene). As to the kind of experiment: Cell proliferation assay, Karpas-299 cells (CellTiter-Glo). The note with it: Homo sapiens, 72 hours incubation. The protocol: as §3, §4

T1 sequence (Q9UM73 whole entry, change not shown, the tested form may be a part): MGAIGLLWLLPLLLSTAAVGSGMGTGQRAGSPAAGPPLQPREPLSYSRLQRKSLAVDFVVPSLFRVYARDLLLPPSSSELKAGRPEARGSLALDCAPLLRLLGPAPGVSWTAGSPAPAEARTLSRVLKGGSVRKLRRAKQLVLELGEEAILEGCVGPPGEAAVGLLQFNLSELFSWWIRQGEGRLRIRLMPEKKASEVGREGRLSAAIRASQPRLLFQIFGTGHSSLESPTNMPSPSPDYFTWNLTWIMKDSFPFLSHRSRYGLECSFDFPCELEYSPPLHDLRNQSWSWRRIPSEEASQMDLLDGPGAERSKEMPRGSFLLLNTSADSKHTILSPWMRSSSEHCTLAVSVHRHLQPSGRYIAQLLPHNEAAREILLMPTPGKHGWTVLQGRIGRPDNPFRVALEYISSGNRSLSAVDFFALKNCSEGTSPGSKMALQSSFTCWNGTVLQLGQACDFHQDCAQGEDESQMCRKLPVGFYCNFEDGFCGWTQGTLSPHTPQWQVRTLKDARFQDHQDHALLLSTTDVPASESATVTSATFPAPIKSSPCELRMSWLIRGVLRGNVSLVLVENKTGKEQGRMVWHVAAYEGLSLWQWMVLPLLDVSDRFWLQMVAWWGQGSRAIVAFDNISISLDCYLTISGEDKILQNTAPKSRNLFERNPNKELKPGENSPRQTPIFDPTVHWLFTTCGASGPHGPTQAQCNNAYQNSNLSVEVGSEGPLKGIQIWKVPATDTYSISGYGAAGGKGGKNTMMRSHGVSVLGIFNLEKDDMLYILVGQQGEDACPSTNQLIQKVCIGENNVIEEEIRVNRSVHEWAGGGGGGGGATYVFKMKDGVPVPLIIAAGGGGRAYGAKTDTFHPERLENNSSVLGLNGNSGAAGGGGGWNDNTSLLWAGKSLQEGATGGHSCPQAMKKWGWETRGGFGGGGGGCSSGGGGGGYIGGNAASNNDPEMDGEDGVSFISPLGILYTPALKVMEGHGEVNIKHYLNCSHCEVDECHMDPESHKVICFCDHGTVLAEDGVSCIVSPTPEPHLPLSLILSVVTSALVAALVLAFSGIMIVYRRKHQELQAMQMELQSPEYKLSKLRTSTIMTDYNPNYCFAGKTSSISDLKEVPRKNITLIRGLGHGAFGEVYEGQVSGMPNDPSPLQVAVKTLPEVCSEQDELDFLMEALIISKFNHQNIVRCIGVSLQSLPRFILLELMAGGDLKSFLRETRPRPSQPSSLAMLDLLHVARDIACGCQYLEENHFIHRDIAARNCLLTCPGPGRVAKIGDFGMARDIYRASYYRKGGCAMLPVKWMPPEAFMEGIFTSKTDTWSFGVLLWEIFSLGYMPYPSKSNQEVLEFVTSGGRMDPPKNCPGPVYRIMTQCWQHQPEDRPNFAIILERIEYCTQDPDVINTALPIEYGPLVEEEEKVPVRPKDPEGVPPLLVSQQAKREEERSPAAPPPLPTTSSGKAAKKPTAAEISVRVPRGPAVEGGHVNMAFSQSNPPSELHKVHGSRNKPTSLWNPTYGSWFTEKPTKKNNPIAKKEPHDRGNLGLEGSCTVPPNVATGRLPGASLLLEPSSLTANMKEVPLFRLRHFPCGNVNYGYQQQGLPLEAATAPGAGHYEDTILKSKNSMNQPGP
T2 sequence (P08922 whole entry, change not shown, the tested form may be a part): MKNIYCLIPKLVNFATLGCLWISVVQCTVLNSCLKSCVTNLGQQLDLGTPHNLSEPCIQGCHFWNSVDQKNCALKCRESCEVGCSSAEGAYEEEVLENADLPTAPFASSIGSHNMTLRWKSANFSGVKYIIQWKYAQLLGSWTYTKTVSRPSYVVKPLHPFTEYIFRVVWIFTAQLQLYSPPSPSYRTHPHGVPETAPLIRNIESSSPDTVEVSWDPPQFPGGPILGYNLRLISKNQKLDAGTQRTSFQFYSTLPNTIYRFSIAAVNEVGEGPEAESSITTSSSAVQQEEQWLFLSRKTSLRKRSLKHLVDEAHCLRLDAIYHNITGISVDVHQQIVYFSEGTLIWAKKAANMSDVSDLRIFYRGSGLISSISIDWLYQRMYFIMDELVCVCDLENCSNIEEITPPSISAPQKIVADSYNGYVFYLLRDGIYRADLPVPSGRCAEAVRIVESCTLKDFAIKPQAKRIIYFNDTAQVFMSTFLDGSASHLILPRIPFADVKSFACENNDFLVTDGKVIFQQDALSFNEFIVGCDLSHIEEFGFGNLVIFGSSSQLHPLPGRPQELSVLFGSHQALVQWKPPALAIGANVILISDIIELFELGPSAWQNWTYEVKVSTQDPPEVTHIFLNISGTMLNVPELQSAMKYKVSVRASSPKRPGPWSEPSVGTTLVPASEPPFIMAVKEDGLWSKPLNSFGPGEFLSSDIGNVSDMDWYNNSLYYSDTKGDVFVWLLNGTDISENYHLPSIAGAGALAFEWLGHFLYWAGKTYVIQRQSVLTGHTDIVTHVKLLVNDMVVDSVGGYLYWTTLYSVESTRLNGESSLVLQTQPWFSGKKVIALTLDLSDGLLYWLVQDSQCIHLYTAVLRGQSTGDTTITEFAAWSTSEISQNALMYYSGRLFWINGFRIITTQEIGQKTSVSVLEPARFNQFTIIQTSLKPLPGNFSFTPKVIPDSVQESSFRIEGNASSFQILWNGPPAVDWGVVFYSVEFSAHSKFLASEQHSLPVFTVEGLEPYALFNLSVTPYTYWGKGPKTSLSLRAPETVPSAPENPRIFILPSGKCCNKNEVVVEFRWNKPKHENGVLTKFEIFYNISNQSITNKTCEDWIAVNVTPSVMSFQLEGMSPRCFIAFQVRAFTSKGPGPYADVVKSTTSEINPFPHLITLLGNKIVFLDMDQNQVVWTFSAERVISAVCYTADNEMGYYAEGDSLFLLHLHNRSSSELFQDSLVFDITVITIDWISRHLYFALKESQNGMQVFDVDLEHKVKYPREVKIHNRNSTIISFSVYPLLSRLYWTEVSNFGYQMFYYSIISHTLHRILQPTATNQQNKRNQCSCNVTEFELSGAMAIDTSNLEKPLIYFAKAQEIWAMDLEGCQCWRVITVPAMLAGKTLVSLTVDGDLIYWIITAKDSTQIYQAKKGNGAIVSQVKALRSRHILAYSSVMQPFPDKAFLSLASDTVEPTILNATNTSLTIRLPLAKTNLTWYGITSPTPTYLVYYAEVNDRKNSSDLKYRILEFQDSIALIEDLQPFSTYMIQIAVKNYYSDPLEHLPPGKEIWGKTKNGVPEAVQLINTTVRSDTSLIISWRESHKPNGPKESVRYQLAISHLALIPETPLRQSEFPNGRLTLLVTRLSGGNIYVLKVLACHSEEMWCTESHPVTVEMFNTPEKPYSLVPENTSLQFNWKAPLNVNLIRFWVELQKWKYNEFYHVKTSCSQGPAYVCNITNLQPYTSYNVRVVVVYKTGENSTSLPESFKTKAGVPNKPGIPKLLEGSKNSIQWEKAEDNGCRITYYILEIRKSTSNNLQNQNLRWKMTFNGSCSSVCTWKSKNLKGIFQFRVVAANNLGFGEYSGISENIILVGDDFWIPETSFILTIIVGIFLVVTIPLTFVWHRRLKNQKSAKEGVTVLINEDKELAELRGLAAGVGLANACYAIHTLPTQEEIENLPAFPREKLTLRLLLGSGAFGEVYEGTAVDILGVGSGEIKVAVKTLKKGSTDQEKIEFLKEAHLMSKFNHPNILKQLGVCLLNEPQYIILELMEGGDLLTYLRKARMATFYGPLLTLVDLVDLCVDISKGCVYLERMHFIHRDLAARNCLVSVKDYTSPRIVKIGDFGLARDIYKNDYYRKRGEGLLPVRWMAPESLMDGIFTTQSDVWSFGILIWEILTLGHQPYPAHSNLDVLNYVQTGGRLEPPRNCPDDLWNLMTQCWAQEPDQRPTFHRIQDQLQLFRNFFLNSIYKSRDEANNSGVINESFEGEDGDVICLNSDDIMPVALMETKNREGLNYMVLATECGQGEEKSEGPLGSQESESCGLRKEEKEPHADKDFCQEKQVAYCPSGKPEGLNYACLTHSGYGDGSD

For the compound `CC[C@@H]1CNC(=O)c2cnn3ccc(nc23)N[C@H](C)c2cc(F)ccc2O1` [Compound 1, (7R,13R)-7-ethyl-11-fluoro-13-methyl-6,7,13,14-tetrahydro-1,15-ethenopyrazolo[4,3-f][1,4,8,10]benzoxatriazacyclotridecin-4(5H)-one], the results for the GI50 at EML4-ALK Ba/F3 and on CD74-ROS1 Ba/F3 were 13.4 nM and 0.2 nM, respectively. In addition, the IC50 in assay [1] came out at 67.6 nM; in assay [2], 0.2 nM; in assay [3] it was 16.7 nM.

In the case of `CC[C@@H]1COc2ccc(F)cc2[C@@H](C)Nc2ccn3ncc(c3n2)C(=O)N1` [Compound 2, (6R,13R)-6-ethyl-11-fluoro-13-methyl-6,7,13,14-tetrahydro-1,15-ethenopyrazolo[4,3-f][1,4,8,10]benzoxatriazacyclotridecin-4(5H)-one], the GI50 at EML4-ALK Ba/F3 was 681 nM; at CD74-ROS1 Ba/F3, 0.7 nM. Besides, the IC50 is 956 nM in assay [1], 6 nM in assay [2] and 354 nM in assay [3].

Turning to `CC[C@H]1CNC(=O)c2cnn3ccc(nc23)N[C@H](C)c2cc(F)ccc2O1` [Compound 3, (7S,13R)-7-ethyl-11-fluoro-13-methyl-6,7,13,14-tetrahydro-1,15-ethenopyrazolo[4,3-f][1,4,8,10]benzoxatriazacyclotridecin-4(5H)-one], the figures for the GI50 at EML4-ALK Ba/F3 and on CD74-ROS1 Ba/F3 were 138 nM and 0.2 nM, respectively. Moreover, the results for the IC50 in assay [1], in assay [2] and in assay [3] were 263 nM, 0.3 nM and 83 nM, respectively.

Regarding `CC[C@H]1COc2ccc(F)cc2[C@@H](C)Nc2ccn3ncc(c3n2)C(=O)N1` [Compound 4, (6S,13R)-6-ethyl-11-fluoro-13-methyl-6,7,13,14-tetrahydro-1,15-ethenopyrazolo[4,3-f][1,4,8,10]benzoxatriazacyclotridecin-4(5H)-one], the GI50 came to 892 nM on EML4-ALK Ba/F3 and 0.2 nM at CD74-ROS1 Ba/F3. In addition, the IC50 in assay [1] came to 1370 nM; in assay [2], 0.3 nM; in assay [3] it was 1370 nM.

On to `C[C@H]1Nc2ccn3ncc(c3n2)C(=O)NC[C@H](CO)Oc2ccc(F)cc21` [Compound 5, (7R,13R)-11-fluoro-7-(hydroxymethyl)-13-methyl-6,7,13,14-tetrahydro-1,15-ethenopyrazolo[4,3-f][1,4,8,10]benzoxatriazacyclotridecin-4(5H)-one], for which the values for the GI50 at EML4-ALK Ba/F3 and at CD74-ROS1 Ba/F3 were 2030 nM and 27.9 nM, respectively. Further, the IC50 is 852 nM in assay [1], 16.5 nM in assay [2] and 794 nM in assay [3].

As for `C[C@H]1Nc2ccn3ncc(c3n2)C(=O)N[C@@H](CO)COc2ccc(F)cc21` [Compound 6, (6S,13R)-11-fluoro-6-(hydroxymethyl)-13-methyl-6,7,13,14-tetrahydro-1,15-ethenopyrazolo[4,3-f][1,4,8,10]benzoxatriazacyclotridecin-4(5H)-one], the GI50 was 116 nM at EML4-ALK Ba/F3 and 2.8 nM at CD74-ROS1 Ba/F3. Besides, the IC50 turned out to be 164 nM in assay [1], 0.5 nM in assay [2] and 65 nM in assay [3].

With `C[C@H]1Nc2ccn3ncc(c3n2)C(=O)NC[C@@H](CO)Oc2ccc(F)cc21` [Compound 7, (7S,13R)-11-fluoro-7-(hydroxymethyl)-13-methyl-6,7,13,14-tetrahydro-1,15-ethenopyrazolo[4,3-f][1,4,8,10]benzoxatriazacyclotridecin-4(5H)-one], the figures for the GI50 on EML4-ALK Ba/F3 and at CD74-ROS1 Ba/F3 were 715 nM and 22.6 nM, respectively. Besides, the IC50 in assay [1] is 190 nM; in assay [2], 16.8 nM; in assay [3], 438 nM.

On to `O=C1NCCOc2ccc(F)cc2[C@@H](CCF)Nc2ccn3ncc1c3n2` [Compound 23, (13R)-11-fluoro-13-(2-fluoroethyl)-6,7,13,14-tetrahydro-1,15-ethenopyrazolo[4,3-f][1,4,8,10]benzoxatriazacyclotridecin-4(5H)-one], for which the results for the GI50 at EML4-ALK Ba/F3 and at CD74-ROS1 Ba/F3 were 459 nM and 5.1 nM, respectively. Further, the figures for the IC50 in assay [1] and in assay [2] were 236 nM and 1.3 nM, respectively.

In the case of `COC[C@@H]1CNC(=O)c2cnn3ccc(nc23)N[C@H](C)c2cc(F)ccc2O1` [Compound 25, (7S,13R)-11-fluoro-7-(methoxymethyl)-13-methyl-6,7,13,14-tetrahydro-1,15-ethenopyrazolo[4,3-f][1,4,8,10]benzoxatriazacyclotridecin-4(5H)-one], the GI50 on EML4-ALK Ba/F3 was 88.5 nM. In addition, the IC50 in assay [1] turned out to be 134 nM; in assay [2], 6.1 nM; in assay [3], 166 nM.

As to `C[C@H]1Nc2ccn3ncc(c3n2)C(=O)NC[C@@H](CN(C)C)Oc2ccc(F)cc21` [Compound 55, (7S,13R)-7-[(dimethylamino)methyl]-11-fluoro-13-methyl-6,7,13,14-tetrahydro-1,15-ethenopyrazolo[4,3-f][1,4,8,10]benzoxatriazacyclotridecin-4(5H)-one], the GI50 on EML4-ALK Ba/F3 turned out to be 709 nM. In addition, the IC50 was 300 nM in assay [1] and 23.5 nM in assay [2].

Take `C[C@H]1Nc2ccn3ncc(c3n2)C(=O)NC[C@@H](CN2CCCC2)Oc2ccc(F)cc21` [Compound 57, (7S,13R)-11-fluoro-13-methyl-7-[(pyrrolidin-1-yl)methyl]-6,7,13,14-tetrahydro-1,15-ethenopyrazolo[4,3-f][1,4,8,10]benzoxatriazacyclotridecin-4(5H)-one]: the GI50 on EML4-ALK Ba/F3 is 665 nM. Further, the IC50 in assay [1] was 132 nM; in assay [2] it was 70 nM.

Consider `CC[C@@H]1CNC(=O)c2cnn3ccc(nc23)N[C@H](C)c2cc(F)cnc2O1` [Compound 58, (7R,13R)-7-ethyl-11-fluoro-13-methyl-6,7,13,14-tetrahydro-1,15-ethenopyrazolo[4,3-f]pyrido[3,2-l][1,4,8,10]oxatriazacyclotridecin-4(5H)-one], for which the GI50 on EML4-ALK Ba/F3 is 31 nM. In addition, the values for the IC50 in assay [1] and in assay [2] were 174 nM and 0.2 nM, respectively.

In the case of `C[C@@H]1Nc2ccn3ncc(c3n2)C(=O)NC[C@H](C)Oc2ncc(F)cc21` [Compound 59, (7S,13S)-11-fluoro-7,13-dimethyl-6,7,13,14-tetrahydro-1,15-ethenopyrazolo[4,3-f]pyrido[3,2-l][1,4,8,10]oxatriazacyclotridecin-4(5H)-one], at EML4-ALK Ba/F3, the GI50 came out at 2000 nM. Moreover, the IC50 in assay [1] was found to be 402 nM; in assay [2] it was 5.5 nM.

For `C[C@H]1CNC(=O)c2cnn3ccc(nc23)N[C@H](C)c2cc(F)cnc2O1` [Compound 60, (7S,13R)-11-fluoro-7,13-dimethyl-6,7,13,14-tetrahydro-1,15-ethenopyrazolo[4,3-f]pyrido[3,2-l][1,4,8,10]oxatriazacyclotridecin-4(5H)-one], the GI50 on EML4-ALK Ba/F3 came out at 218 nM. Besides, the values for the IC50 in assay [1] and in assay [2] were 30.3 nM and 0.35 nM, respectively.

`CNC(=O)C1Nc2ccn3ncc(c3n2)C(=O)NC[C@H](C)Oc2ccc(F)cc21` (stereo partly drawn) [Compound 61, (7S)-11-fluoro-N,7-dimethyl-4-oxo-4,5,6,7,13,14-hexahydro-1,15-ethenopyrazolo[4,3-f][1,4,8,10]benzoxatriazacyclotridecine-13-carboxamide]: at EML4-ALK Ba/F3, the GI50 came out at 8000 nM. Further, the IC50 in assay [1] came to 1070 nM; in assay [2] it was 73.7 nM.

As to `C[C@H]1CNC(=O)c2cnn3ccc(nc23)NC(C(=O)N(C)C)c2cc(F)ccc2O1` (stereo partly drawn) [Compound 62, (7S)-11-fluoro-N,N,7-trimethyl-4-oxo-4,5,6,7,13,14-hexahydro-1,15-ethenopyrazolo[4,3-f][1,4,8,10]benzoxatriazacyclotridecine-13-carboxamide], the GI50 at EML4-ALK Ba/F3 was found to be 3000 nM. The figures for the IC50 in assay [1] and in assay [2] were 3570 nM and 112 nM, respectively.

These data come from patent US11008337B2, “Chiral diaryl macrocycles as modulators of protein kinases” (Turning Point Therapeutics, Inc., priority 2015, dated 2021).
